From the NIST ThermoML archive (doi:10.1021/je060017i)

Key:
[1] = excess molar enthalpy (molar enthalpy of mixing); xn = mol fraction of the nth substance listed; conditions: 101 kPa, Liquid, Flow calorimetry
[2] = xn = mol fraction of the nth substance listed; conditions: 101 kPa, Liquid

CC1CCCO1 (configuration not stated) [2-methyltetrahydrofuran] + CCCCO
Conditions | excess molar enthalpy [kcal/mol] | mass density [kg/m3] | speed of sound [m/s] | viscosity [mPa·s]
[1], 283.15 K, x1 = 0.054 | 0.0237 | – | – | –
[1], 283.15 K, x1 = 0.104 | 0.0492 | – | – | –
[1], 283.15 K, x1 = 0.206 | 0.092 | – | – | –
[1], 283.15 K, x1 = 0.308 | 0.131 | – | – | –
[1], 283.15 K, x1 = 0.411 | 0.154 | – | – | –
[1], 283.15 K, x1 = 0.51 | 0.166 | – | – | –
[1], 283.15 K, x1 = 0.609 | 0.166 | – | – | –
[1], 283.15 K, x1 = 0.708 | 0.151 | – | – | –
[1], 283.15 K, x1 = 0.806 | 0.121 | – | – | –
[1], 283.15 K, x1 = 0.907 | 0.0696 | – | – | –
[1], 283.15 K, x1 = 0.953 | 0.038 | – | – | –
[1], 298.15 K, x1 = 0.054 | 0.0263 | – | – | –
[1], 298.15 K, x1 = 0.104 | 0.0526 | – | – | –
[1], 298.15 K, x1 = 0.206 | 0.102 | – | – | –
[1], 298.15 K, x1 = 0.308 | 0.14 | – | – | –
[1], 298.15 K, x1 = 0.411 | 0.166 | – | – | –
[1], 298.15 K, x1 = 0.51 | 0.179 | – | – | –
[1], 298.15 K, x1 = 0.609 | 0.178 | – | – | –
[1], 298.15 K, x1 = 0.708 | 0.162 | – | – | –
[1], 298.15 K, x1 = 0.806 | 0.129 | – | – | –
[1], 298.15 K, x1 = 0.907 | 0.0741 | – | – | –
[1], 298.15 K, x1 = 0.953 | 0.0406 | – | – | –
[1], 313.15 K, x1 = 0.054 | 0.0277 | – | – | –
[1], 313.15 K, x1 = 0.104 | 0.0559 | – | – | –
[1], 313.15 K, x1 = 0.206 | 0.109 | – | – | –
[1], 313.15 K, x1 = 0.308 | 0.151 | – | – | –
[1], 313.15 K, x1 = 0.411 | 0.179 | – | – | –
[1], 313.15 K, x1 = 0.51 | 0.193 | – | – | –
[1], 313.15 K, x1 = 0.609 | 0.192 | – | – | –
[1], 313.15 K, x1 = 0.708 | 0.174 | – | – | –
[1], 313.15 K, x1 = 0.806 | 0.138 | – | – | –
[1], 313.15 K, x1 = 0.907 | 0.0786 | – | – | –
[1], 313.15 K, x1 = 0.953 | 0.0428 | – | – | –
[2], 283.15 K, x1 = 0.0447 | – | – | 1292.4 | –
[2], 283.15 K, x1 = 0.0518 | – | – | – | 3.231
[2], 283.15 K, x1 = 0.0539 | – | 820.03 | – | –
[2], 283.15 K, x1 = 0.1047 | – | 822.92 | – | –
[2], 283.15 K, x1 = 0.1048 | – | – | – | 2.67
[2], 283.15 K, x1 = 0.1154 | – | – | 1292.6 | –
[2], 283.15 K, x1 = 0.2068 | – | 828.51 | – | –
[2], 283.15 K, x1 = 0.2123 | – | – | – | 1.958
[2], 283.15 K, x1 = 0.2143 | – | – | 1291.5 | –
[2], 283.15 K, x1 = 0.2451 | – | – | 1291 | –
[2], 283.15 K, x1 = 0.3108 | – | 833.9 | – | –
[2], 283.15 K, x1 = 0.3159 | – | – | – | 1.507
[2], 283.15 K, x1 = 0.4147 | – | 839.04 | – | –
[2], 283.15 K, x1 = 0.4197 | – | – | – | 1.218
[2], 283.15 K, x1 = 0.4221 | – | – | 1286.8 | –
[2], 283.15 K, x1 = 0.4893 | – | 842.56 | – | –
[2], 283.15 K, x1 = 0.5195 | – | – | – | 1.013
[2], 283.15 K, x1 = 0.5204 | – | – | 1284 | –
[2], 283.15 K, x1 = 0.6172 | – | – | 1281.2 | –
[2], 283.15 K, x1 = 0.6195 | – | 848.41 | – | –
[2], 283.15 K, x1 = 0.6211 | – | – | – | 0.865
[2], 283.15 K, x1 = 0.7116 | – | – | – | 0.76
[2], 283.15 K, x1 = 0.7128 | – | – | 1278.1 | –
[2], 283.15 K, x1 = 0.724 | – | 852.97 | – | –
[2], 283.15 K, x1 = 0.8078 | – | – | 1275.2 | –
[2], 283.15 K, x1 = 0.8103 | – | – | – | 0.675
[2], 283.15 K, x1 = 0.8923 | – | 859.92 | – | –
[2], 283.15 K, x1 = 0.8952 | – | – | 1272.2 | –
[2], 283.15 K, x1 = 0.9246 | – | – | – | 0.607
[2], 283.15 K, x1 = 0.9364 | – | – | 1270.3 | –
[2], 283.15 K, x1 = 0.9585 | – | – | – | 0.584
[2], 298.15 K, x1 = 0.0341 | – | – | 1242.6 | –
[2], 298.15 K, x1 = 0.0518 | – | – | – | 2.212
[2], 298.15 K, x1 = 0.102 | – | 811.16 | – | –
[2], 298.15 K, x1 = 0.1048 | – | – | – | 1.914
[2], 298.15 K, x1 = 0.1054 | – | – | 1241.6 | –
[2], 298.15 K, x1 = 0.2068 | – | 816.38 | – | –
[2], 298.15 K, x1 = 0.2085 | – | – | 1238.8 | –
[2], 298.15 K, x1 = 0.2123 | – | – | – | 1.446
[2], 298.15 K, x1 = 0.2968 | – | – | 1235.7 | –
[2], 298.15 K, x1 = 0.3108 | – | 821.37 | – | –
[2], 298.15 K, x1 = 0.3159 | – | – | – | 1.145
[2], 298.15 K, x1 = 0.3535 | – | – | 1233.4 | –
[2], 298.15 K, x1 = 0.4152 | – | 826.08 | – | –
[2], 298.15 K, x1 = 0.4197 | – | – | – | 0.951
[2], 298.15 K, x1 = 0.4283 | – | – | 1230.3 | –
[2], 298.15 K, x1 = 0.4848 | – | 829.16 | – | –
[2], 298.15 K, x1 = 0.5058 | – | – | 1226.8 | –
[2], 298.15 K, x1 = 0.5195 | – | – | – | 0.806
[2], 298.15 K, x1 = 0.6075 | – | – | 1222.2 | –
[2], 298.15 K, x1 = 0.6191 | – | 834.74 | – | –
[2], 298.15 K, x1 = 0.6211 | – | – | – | 0.701
[2], 298.15 K, x1 = 0.7077 | – | – | 1217.6 | –
[2], 298.15 K, x1 = 0.7116 | – | – | – | 0.626
[2], 298.15 K, x1 = 0.7245 | – | 838.88 | – | –
[2], 298.15 K, x1 = 0.8103 | – | – | – | 0.563
[2], 298.15 K, x1 = 0.8111 | – | – | 1212.6 | –
[2], 298.15 K, x1 = 0.8157 | – | 842.28 | – | –
[2], 298.15 K, x1 = 0.8911 | – | 845.05 | – | –
[2], 298.15 K, x1 = 0.8947 | – | – | 1208.3 | –
[2], 298.15 K, x1 = 0.9246 | – | – | – | 0.507
[2], 298.15 K, x1 = 0.9337 | – | – | 1206.1 | –
[2], 298.15 K, x1 = 0.9585 | – | – | – | 0.502
[2], 313.15 K, x1 = 0.0518 | – | – | – | 1.555
[2], 313.15 K, x1 = 0.0519 | – | – | 1184.6 | –
[2], 313.15 K, x1 = 0.1038 | – | 799.46 | – | –
[2], 313.15 K, x1 = 0.1048 | – | – | – | 1.361
[2], 313.15 K, x1 = 0.1237 | – | – | 1181.8 | –
[2], 313.15 K, x1 = 0.2098 | – | 804.34 | – | –
[2], 313.15 K, x1 = 0.2123 | – | – | – | 1.085
[2], 313.15 K, x1 = 0.2168 | – | – | 1177.7 | –
[2], 313.15 K, x1 = 0.3097 | – | – | 1172.9 | –
[2], 313.15 K, x1 = 0.3139 | – | 808.86 | – | –
[2], 313.15 K, x1 = 0.3159 | – | – | – | 0.896
[2], 313.15 K, x1 = 0.4133 | – | – | 1167.2 | –
[2], 313.15 K, x1 = 0.4135 | – | 813 | – | –
[2], 313.15 K, x1 = 0.4197 | – | – | – | 0.759
[2], 313.15 K, x1 = 0.4906 | – | 816.02 | – | –
[2], 313.15 K, x1 = 0.511 | – | – | 1161.3 | –
[2], 313.15 K, x1 = 0.5195 | – | – | – | 0.651
[2], 313.15 K, x1 = 0.6175 | – | 820.8 | – | –
[2], 313.15 K, x1 = 0.6211 | – | – | – | 0.574
[2], 313.15 K, x1 = 0.6561 | – | – | 1152.6 | –
[2], 313.15 K, x1 = 0.7116 | – | – | – | 0.518
[2], 313.15 K, x1 = 0.7256 | – | 824.59 | – | –
[2], 313.15 K, x1 = 0.7265 | – | – | 1148.3 | –
[2], 313.15 K, x1 = 0.8103 | – | – | – | 0.473
[2], 313.15 K, x1 = 0.8151 | – | – | 1142.7 | –
[2], 313.15 K, x1 = 0.8172 | – | 827.71 | – | –
[2], 313.15 K, x1 = 0.8909 | – | 830.17 | – | –
[2], 313.15 K, x1 = 0.8995 | – | – | 1137.1 | –
[2], 313.15 K, x1 = 0.9246 | – | – | – | 0.432
[2], 313.15 K, x1 = 0.9476 | – | – | 1133.5 | –
[2], 313.15 K, x1 = 0.9585 | – | – | – | 0.425
